The record followed here is BindingDB's records for doi:10.1016/S0960-894X(00)80454-0 (1992).

The assay can be described thus: In vitro binding affinity using [3H]LTB4 radioligand binding to leukotriene B4 receptor in human neutrophil binding assay.

The Ki is a measure of affinity in units of concentration, obtained from inhibition or displacement. Lower therefore signals a stronger hold on the target. Molecule `CCCc1c(OCCCOc2cc(O)c(OCC)cc2CC)ccc2c1OC(C(=O)O)CC2` (configuration not stated) [7-[3-(4-Ethoxy-2-ethyl-5-hydroxy-phenoxy)-propoxy]-8-propyl-chroman-2-carboxylic acid] gave a Ki of 3.5 nM.

The molecule `CCCc1c(OCCCOc2cc(O)c(OC)cc2CC)ccc2c1OC(C(=O)O)CC2` (configuration not stated) [7-[3-(2-Ethyl-5-hydroxy-4-methoxy-phenoxy)-propoxy]-8-propyl-chroman-2-carboxylic acid] showed a Ki of 1.9 nM.
